According to article PMC2789240, “Comparative structural, kinetic and inhibitor studies of Trypanosoma brucei trypanothione reductase with T. cruzi^” (Molecular and Biochemical Parasitology, 2010):
Like-named read-outs stand apart in the source and are kept apart here.

Legend:
[1] = biological target: T1, TcTryR (recombinant T. cruzi trypanothione reductase) (Trypanosoma cruzi, UniProt P28593); test: 412 nm DTNB-coupled trypanothione reductase assay (IC50, Km); format: biochemical; details: 412 nm assay, T(S)2 at S = Km (10.4 μM), weighted mean of three occasions
T1 construct: made in house
Procedure: Assay plates were prepared using a Precision2000 liquid handler (Bio-Tek) with a final DMSO concentration of 1% in all wells. Plates contained a 10-point serial dilution (2-fold or 3-fold dilutions) across columns 2–11 with a top concentration of 100 μM or 200 μM. […] Column 1 contained full signal controls (no inhibitor) and column 12 contained background controls (no enzyme). […] Z′ figures were calculated from the full signal and background controls.

[2] = biological target: T2, TbTryR (recombinant T. b. brucei trypanothione reductase) (Trypanosoma brucei brucei, UniProt Q389T8); test: biochemical
[3] = test system: Bloodstream form T. b. brucei cells (strain 427, 'single marker'); test: Growth inhibition of bloodstream form T. b. brucei (resazurin); format: cell-based; details: Trypanosoma brucei, 72 h, 3 days incubation, weighted mean of three experiments
Procedure: Bloodstream form T. b. brucei cells (strain 427, ‘single marker’) were grown at 37 °C and 5% CO2 in a modified HMI9 [21] (HMI9-T where 0.2 mM 2-mercaptoethanol was replaced with 0.056 mM thioglycerol). Stock cultures were maintained in T75 vented cap culture flasks (Greiner, Kremsmuenster, Austria) and sub-cultured every 48–72 h by dilution into fresh medium. For microtitre plate assays, cells were counted using a Casy cell counter TT (Schärfe systems) and diluted appropriately. Compounds were tested in 96-well test plates (Greiner). The final conditions were 50–0.07 μM test compound (9-point 3-fold serial dilutions), 0.5% DMSO, 10^3 ml^−1 cells in a total volume of 0.2 ml. Plates were incubated for 3 days, resazurin was added to a final concentration of 45 μM and plates incubated for a further 4 h. Fluorescence was measured at 528 nm excitation and 590 nm emission. EC50 values were determined in three separate experiments and the data reported as weighted means.

[4] = test system: TbTryR (recombinant T. b. brucei trypanothione reductase)
African trypanosomiasis [5] = test system: African trypanosomiasis; set-up: method as in Halliburton and Fairlamb, unpublished; details: 50 mg kg^-1, i.p., acute mouse model; ref Halliburton and Fairlamb, unpublished; cited from earlier work
[6] = test system: Bloodstream form T. b. brucei cells (strain 427, 'single marker'); details: cited from earlier work
[7] = biological target: T2, TbTryR (recombinant T. b. brucei trypanothione reductase); details: 150 μM NADH as electron donor, 412 nm assay
TbTryR = TbTryR (Trypanosoma brucei brucei, UniProt Q389T8); test: Modified 412 nm DTNB-coupled assay with NADPH regeneration by glucose-6-phosphate dehydrogenase; format: biochemical; details: NADPH-regenerating system, 6 μM T(S)2
Procedure: In order to determine Km with respect to NADPH using the 412 nm DTNB assay, NADPH levels were maintained constant using glucose-6-phosphate and glucose-6-phosphate dehydrogenase from Saccharomyces cerevisiae. […] The final assay mixture contained 40 mM HEPES pH 7.4, 1 mM EDTA, ∼10 mU ml^−1 TryR, 6 μM T(S)2, 50 μM DTNB and 0.2–200 μM NADPH (7-point 3-fold serial dilution). Assays were initiated by addition of the NADPH. Km values with respect to NADPH were determined for TbTryR in three independent experiments and a weighted mean calculated.

[8] = test system: L. donovani trypanothione reductase; set-up: method as in PMID 7607216; details: read-out: Km T(S)2 (by NADPH oxidation); cited from earlier work
African trypanosomiasis [9] = test system: African trypanosomiasis; set-up: method as in PMID 3503414; details: 50 mg kg^-1, i.p.; cited from earlier work
[10] = ratio of IC50 values at respective S = Km

T1 sequence (P28593 whole entry): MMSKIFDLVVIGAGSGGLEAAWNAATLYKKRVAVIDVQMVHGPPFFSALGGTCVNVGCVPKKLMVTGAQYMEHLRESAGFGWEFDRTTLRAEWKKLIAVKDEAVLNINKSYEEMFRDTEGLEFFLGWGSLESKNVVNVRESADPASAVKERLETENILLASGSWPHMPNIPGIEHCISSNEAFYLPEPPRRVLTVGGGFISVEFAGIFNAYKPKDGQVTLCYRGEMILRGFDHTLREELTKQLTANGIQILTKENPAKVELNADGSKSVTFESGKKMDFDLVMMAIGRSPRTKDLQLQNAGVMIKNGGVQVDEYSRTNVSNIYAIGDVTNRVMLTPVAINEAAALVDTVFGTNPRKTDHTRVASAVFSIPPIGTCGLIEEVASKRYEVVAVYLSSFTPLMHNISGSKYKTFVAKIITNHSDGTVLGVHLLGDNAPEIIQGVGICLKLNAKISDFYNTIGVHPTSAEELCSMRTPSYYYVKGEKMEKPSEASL
T2 sequence (Q389T8 entry or part of it): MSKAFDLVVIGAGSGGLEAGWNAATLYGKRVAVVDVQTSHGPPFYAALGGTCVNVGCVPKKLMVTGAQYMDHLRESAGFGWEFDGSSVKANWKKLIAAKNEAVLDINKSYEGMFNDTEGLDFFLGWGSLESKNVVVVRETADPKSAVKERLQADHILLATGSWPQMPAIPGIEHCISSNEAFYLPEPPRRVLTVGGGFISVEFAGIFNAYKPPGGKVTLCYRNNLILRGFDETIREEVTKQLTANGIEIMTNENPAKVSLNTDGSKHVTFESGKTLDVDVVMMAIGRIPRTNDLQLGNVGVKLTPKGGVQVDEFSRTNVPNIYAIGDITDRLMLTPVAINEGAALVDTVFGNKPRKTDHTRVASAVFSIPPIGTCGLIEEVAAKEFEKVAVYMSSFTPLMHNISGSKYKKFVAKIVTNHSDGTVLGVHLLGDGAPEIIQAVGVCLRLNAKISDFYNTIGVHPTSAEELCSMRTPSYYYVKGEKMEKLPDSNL
TbTryR, sequence (Q389T8 entry or part of it): as above

| SMILES | IC50 [1] | IC50 [2] | Ratio Tc/Tb (IC50 TcTryR / IC50 TbTryR) [4, 10] | EC50 ([6]; ref Martyn et al. [19]) | also measured |
| --- | --- | --- | --- | --- | --- |
| CN(C)CCCC1(c2ccc(F)cc2)OCc2cc(C#N)ccc21 (centres unmarked) [Citalopram] | 154 ± 5.42 µM | 82.3 ± 6.35 µM | 1.9 | – | EC50 [3]: 6.59 ± 0.54 µM |
| CN(C)CCCN1c2ccccc2CCc2ccc(Cl)cc21 [Clomipramine] | – | – | – | – | extension of survival time (African trypanosomiasis [5]): failed to extend survival time by even one day |
| CN(C)CCC(=O)c1ccc(S(C)(=O)=O)cc1 [DM5a] | 16.9 ± 1.08 µM | 6.8 ± 0.42 µM | 2.5 | 0.55 ± 0.04 µM | – |
| CN(C)CCC(=O)c1cccc([N+](=O)[O-])c1 [DM6a] | 3.8 ± 0.2 µM | 3.2 ± 0.16 µM | 1.2 | 0.68 ± 0.1 µM | – |
| CC(C)(C)c1cc(CN(CCO)CCO)cc(C(C)(C)C)c1O [DM7a] | 27.8 ± 2.08 µM | 19.2 ± 1.75 µM | 1.4 | 3.01 ± 0.3 µM | – |
| CN(C)CCC(=O)c1ccc(Cl)c(Cl)c1 [DM8a] | 7.99 ± 0.51 µM | 3.17 ± 0.17 µM | – | 1 ± 0.21 µM | Ratio Tc/Tb (IC50 TcTryR / IC50 TbTryR) [4]: 2.5 |
| O=c1c2ccccc2[se]n1-c1ccccc1 [Ebselen] | 0.6 ± 0.01 µM | 0.18 ± 0.01 µM | 3.3 | – | EC50 ([6]; ref Richardson et al. [33]): 2.97 µM |
| NC(=O)C1=CN([C@@H]2O[C@H](COP(=O)(O)OP(=O)(O)OC[C@H]3O[C@@H](n4cnc5c(N)ncnc54)[C@H](O)[C@@H]3O)[C@@H](O)[C@H]2O)C=CC1 [NADH] | – | – | – | – | Activity relative to that obtained with 150 μM NADPH [7]: 5.7% |
| NC(=O)C1=CN([C@@H]2O[C@H](COP(=O)(O)OP(=O)(O)OC[C@H]3O[C@@H](n4cnc5c(N)ncnc54)[C@H](OP(=O)(O)O)[C@@H]3O)[C@@H](O)[C@H]2O)C=CC1 [NADPH] | – | – | – | – | Km (TbTryR): 0.77 ± 0.01 µM |
| CCN(CC)CCCC(C)Nc1c2ccc(Cl)cc2nc2ccc(OC)cc12 (centres unmarked) [Quinacrine] | 37.8 ± 1.91 µM | 22.1 ± 2.05 µM | – | – | Ratio Tc/Tb (IC50 TcTryR / IC50 TbTryR) [4]: 1.7 |
| N[C@@H](CCC(=O)N[C@H]1CSSC[C@H](NC(=O)CC[C@H](N)C(=O)O)C(=O)NCC(=O)NCCCNCCCCNC(=O)CNC1=O)C(=O)O [T(S)2, trypanothione disulphide] | – | – | – | – | Km [8]: 36 µM |
| CSc1ccc2c(c1)N(CCC1CCCCN1C)c1ccccc1S2 (centres unmarked) [Thioridazine] | – | – | – | – | activity in the chronic mouse model of African trypanosomiasis (African trypanosomiasis [9]): inactive |
| CN1CCN(CCCN2c3ccccc3Sc3ccc(C(F)(F)F)cc32)CC1 [Trifluoperazine] | 20.9 ± 0.9 µM | – | – | – | activity in the chronic mouse model of African trypanosomiasis (African trypanosomiasis [9]): inactive; EC50 [3]: 2.11 ± 0.5 µM |
